The target of one data set is T1, MMP-12 (Homo sapiens, UniProt P39900).
T1 construct: catalytic domain(^100Phe˜^263Gly) was amplified with RT-PCR; His-tag; enterokinase digestion-site; made in house; host or cells: Escherichia coli
As to the kind of experiment: Assay for inhibitory activities on MMPs (fluorogenic peptide substrate), MMP-12. Particulars: catalytic domain 100Phe-263Gly; substrate MOCAc-Pro-Leu-Gly-Leu-A2Pr(DNP)-Ala-Arg-NH2. It counts as biochemical. Summed up:
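Human MMP-12 catalytic domain (Phe100–Gly263), His-tagged, E. coli-expressed and refolded from urea. Continuous fluorogenic assay with MOCAc-Pro-Leu-Gly-Leu-A2Pr(DNP)-Ala-Arg-NH2; % inhibition from fluorescence of enzyme/inhibitor, inhibitor-only, enzyme-only and substrate-only reactions, giving IC50.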

The target of another data set is T2, MMP-9 (Homo sapiens, UniProt P14780).
T2 construct: endogenous in cells; host or cells: HT1080 human fibrosarcoma cells, TPA-stimulated; enzyme purified from conditioned medium
T2 sequence (P14780 107-707 limits assumed): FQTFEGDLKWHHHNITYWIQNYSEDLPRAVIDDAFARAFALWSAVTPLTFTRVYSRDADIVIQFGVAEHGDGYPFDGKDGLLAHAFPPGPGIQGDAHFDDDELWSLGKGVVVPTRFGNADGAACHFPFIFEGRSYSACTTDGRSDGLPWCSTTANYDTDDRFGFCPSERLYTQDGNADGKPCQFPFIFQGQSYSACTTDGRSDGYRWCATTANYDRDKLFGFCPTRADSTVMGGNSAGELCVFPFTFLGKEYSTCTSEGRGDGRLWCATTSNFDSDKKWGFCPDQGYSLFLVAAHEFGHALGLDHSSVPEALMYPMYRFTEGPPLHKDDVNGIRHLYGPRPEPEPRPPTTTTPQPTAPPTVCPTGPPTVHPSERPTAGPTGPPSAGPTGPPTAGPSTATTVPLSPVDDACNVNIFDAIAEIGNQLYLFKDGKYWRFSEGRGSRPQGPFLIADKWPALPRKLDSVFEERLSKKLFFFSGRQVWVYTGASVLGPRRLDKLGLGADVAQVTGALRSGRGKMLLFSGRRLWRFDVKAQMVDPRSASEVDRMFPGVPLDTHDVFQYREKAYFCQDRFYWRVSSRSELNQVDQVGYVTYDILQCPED
Briefly: Assay for inhibitory activities on MMPs (fluorogenic peptide substrate), MMP-9. It counts as biochemical. Particulars: MMP-9 from HT1080 cells, activated by TPCK-Trypsin; substrate MOCAc-Pro-Leu-Gly-Leu-A2Pr(DNP)-Ala-Arg-NH2. In a few lines:
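ProMMP-9 from TPA-stimulated (50 ng/ml) HT1080 fibrosarcoma conditioned medium, chromatographically purified free of TIMPs, then activated with TPCK-trypsin. Activity read fluorometrically on MOCAc-Pro-Leu-Gly-Leu-A2Pr(DNP)-Ala-Arg-NH2; % inhibition = {1−(A−B)/(C−D)}×100 from reactions with/without enzyme and inhibitor, IC50 as 50% inhibiting concentration.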

For a further data set, the target named is T3, MMP-2 (Homo sapiens, UniProt P08253).
T3 construct: purchased Calbiochem-Novabiochem International, Inc
T3 sequence (P08253 110-660): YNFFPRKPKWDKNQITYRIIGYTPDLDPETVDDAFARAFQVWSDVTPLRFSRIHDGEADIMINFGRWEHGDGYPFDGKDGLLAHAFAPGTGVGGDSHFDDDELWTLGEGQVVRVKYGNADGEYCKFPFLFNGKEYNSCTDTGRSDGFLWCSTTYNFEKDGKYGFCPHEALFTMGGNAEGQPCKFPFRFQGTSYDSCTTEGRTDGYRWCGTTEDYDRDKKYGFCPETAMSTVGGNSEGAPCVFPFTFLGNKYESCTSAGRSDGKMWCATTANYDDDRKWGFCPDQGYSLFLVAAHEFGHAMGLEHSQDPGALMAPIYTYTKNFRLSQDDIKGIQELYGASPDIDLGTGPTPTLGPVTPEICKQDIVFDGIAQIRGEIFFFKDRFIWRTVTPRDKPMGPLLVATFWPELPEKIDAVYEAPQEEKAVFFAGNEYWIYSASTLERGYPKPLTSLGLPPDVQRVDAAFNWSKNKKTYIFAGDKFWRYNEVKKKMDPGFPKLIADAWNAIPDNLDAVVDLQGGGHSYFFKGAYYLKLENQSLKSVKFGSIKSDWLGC
As to the kind of experiment: Assay for inhibitory activities on MMPs (fluorogenic peptide substrate), MMP-2. It counts as biochemical. Particulars: purchased MMP-2; substrate MOCAc-Pro-Leu-Gly-Leu-A2Pr(DNP)-Ala-Arg-NH2.

Another data set has as its target T4, MMP-8 (Homo sapiens, UniProt P22894).
T4 construct: catalytic domain (^99Phe˜^262Gly) was amplified with PCR; His-tag; enterokinase digestion-site; made in house; host or cells: Escherichia coli
Briefly: Assay for inhibitory activities on MMPs (fluorogenic peptide substrate), MMP-8. It counts as biochemical. Particulars: catalytic domain 99Phe-262Gly; substrate MOCAc-Pro-Leu-Gly-Leu-A2Pr(DNP)-Ala-Arg-NH2.

For the next data set, the target named is T5, MMP-13 (Homo sapiens, UniProt P45452).
T5 construct: catalytic domain (^104Tyr˜^267Gly) was amplified with RT-PCR; His-tag; enterokinase digestion-site; made in house; host or cells: Escherichia coli
As to the kind of experiment: Assay for inhibitory activities on MMPs (fluorogenic peptide substrate), MMP-13. Particulars: catalytic domain 104Tyr-267Gly; substrate MOCAc-Pro-Leu-Gly-Leu-A2Pr(DNP)-Ala-Arg-NH2. The class given is biochemical. In a few lines:
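Catalytic domain (Tyr104–Gly267) of human MMP-13, His-tagged, expressed in E. coli, refolded from urea and activated. Fluorogenic substrate MOCAc-Pro-Leu-Gly-Leu-A2Pr(DNP)-Ala-Arg-NH2. % inhibition from fluorescence with blanks lacking enzyme and/or inhibitor; IC50 is the concentration giving 50% inhibition.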

T4 sequence (P22894 99-262): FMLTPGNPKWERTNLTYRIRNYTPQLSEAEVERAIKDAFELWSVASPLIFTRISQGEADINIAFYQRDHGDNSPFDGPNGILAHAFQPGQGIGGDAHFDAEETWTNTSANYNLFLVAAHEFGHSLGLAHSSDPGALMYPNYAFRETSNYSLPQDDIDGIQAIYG
T1 sequence (P39900 100-263): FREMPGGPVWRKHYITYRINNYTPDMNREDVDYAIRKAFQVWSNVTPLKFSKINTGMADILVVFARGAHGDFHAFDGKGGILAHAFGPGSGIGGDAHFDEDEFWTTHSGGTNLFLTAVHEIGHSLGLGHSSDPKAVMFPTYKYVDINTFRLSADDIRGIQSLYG

In general, IC50 refers to the concentration needed to halve the response being measured. In general, melting point refers to the temperature, or range, at which the solid turns liquid. Consider `COc1ccc(-c2cnc(-c3ccc(S(=O)(=O)N[C@H](Cc4ccccc4)C(=O)O)cc3)s2)cc1` [Compound B-1], for which the melting point lay within 222 to 223 °C. The molecule also displayed an IC50 against MMP-12 of 3.55 nM. Besides, at MMP-9, the IC50 amounted to 43.8 nM. The molecule further showed an IC50 against MMP-2 of 1.29 nM. This molecule came in with an IC50 at MMP-8 of 28.2 nM. Also, the IC50 at MMP-13 was determined as 2.96 nM.
`O=C(O)[C@@H](Cc1ccccc1)NS(=O)(=O)c1ccc(-c2ncc(-c3ccc4ccccc4c3)o2)cc1` [Compound A-1] showed a melting point of 243 to 245 °C. Moreover, the IC50 against MMP-12 is 1.88 nM. In addition, at MMP-9, the concentration for half-maximal inhibition (IC50) is 212 nM. The molecule further displayed a half-inhibitory concentration (IC50) against MMP-2 of 9.31 nM. Further, at MMP-8, the midpoint of inhibition, the IC50, lay at 230 nM. The molecule further displayed a concentration for half-maximal inhibition (IC50) against MMP-13 of 15 nM.
As to `CC(C)[C@@H](NS(=O)(=O)c1ccc(-c2ncc(-c3ccc(Br)cc3)s2)cc1)C(=O)O` [Compound B-10], the IC50 came out at 0.643 nM on MMP-12; 3.96 nM on MMP-9; 0.373 nM on MMP-2; 31.7 nM against MMP-8; 3.38 nM against MMP-13.
Take `CSCC[C@@H](NS(=O)(=O)c1ccc(-c2ncc(-c3ccccc3)s2)cc1)C(=O)O` [Compound B-45]: the half-inhibitory concentration (IC50) against MMP-12 worked out at 2.66 nM; on MMP-9 it was 26.3 nM; at MMP-2, 2.15 nM; at MMP-8, 29 nM; on MMP-13 it was 17.5 nM.

The values are drawn from patent US6949566B2, “Thiazole and oxazole derivatives” (Shionogi & Co. Ltd., priority 2000, dated 2005).
